Assay results: article PMC6627454, “Size and Flexibility Define the Inhibition of the H3N2 Influenza Endonuclease Enzyme by Calix[n]arenes” (Antibiotics, 2019)

Target: H3N2 influenza PA endonuclease (Influenza A virus, UniProt P31343)
Experiment: PA endonuclease inhibition assay (λ-DNA digestion, agarose gel electrophoresis)
Type: biochemical, Influenza A/Victoria/3/1975 (H3N2)
Settings: 0.5 µg λ-DNA, PA endonuclease 0.5 mg/mL, 1 h at 37 °C, 1 mM MnCl2, pH 8; 3 measurements
Description: The digestion activity of the purified PA endonuclease was quantified using agarose gel electrophoresis. A concentration range of PA endonuclease (0.5 mg/mL to 0.5 µg/mL) was mixed with 0.5 µg of λ-DNA (Takara, Japan) in buffer at a final concentration of 20 mM Tris HCl pH 8, 100 mM NaCl, 1 mM MnCl2, 10 mM β-mercaptoethanol. After one hour of incubation at 37 °C, the samples were deposited on ethidium bromide treated agarose gel 0.6% and run during 90 minutes at 75 V. The gel was then scanned (Figure S2). 100 µM solutions of each macrocyclic molecules (Scheme 1) were mixed with 0.5 µg of buffered λ-DNA. This mixture was then combined with the PA endonuclease enzyme and incubated for 1 hour at 37 °C. The samples were deposited on agarose gel 0.6% previously mixed with ethidium bromide and run during 90 minutes at 75 V, after which the gel was scanned. Digestion activity was plotted as a function of inhibitor concentration by quantifying the intensity of the digested bands with ImageJ software. The IC50 values were calculated as in our work on endonuclease inhibition. The intensity of λ-DNA bands was subtracted from negative control (λ-DNA lane) and then normalized from the positive control (λ-DNA and PA protein lane without inhibitor).
100 µM of each macrocyclic molecules β-CDsul, SC[n]a, SC[n]b, and SC[n]c (Figure 1) have been mixed to 0.5 µg of λ-DNA in a buffer at final concentration of 20 mM Tris HCl pH 8, 100 mM NaCl, 1 mM MnCl2, 10 mM β-mercaptoethanol.
The mixture was then mixed with the PA endonuclease enzyme at 0.5 mg/mL and incubated for 1 h at 37 °C.
The samples have been deposited on agarose gel 0.6% previously mixed with ethidium bromide and run over 90 min at 75 V. The gel was then scanned on the ChemiDoc XRS system (Bio-Rad).
The digestion activity is then plotted as a matter of inhibitor concentration by quantifying the intensity of the digested bands with ImageJ software.

| Compound | IC50 [µM] |
| --- | --- |
| O=S(=O)(O)OC[C@H]1O[C@@H]2O[C@H]3[C@H](OS(=O)(=O)O)[C@@H](OS(=O)(=O)O)[C@@H](O[C@H]4[C@H](OS(=O)(=O)O)[C@@H](OS(=O)(=O)O)[C@@H](O[C@H]5[C@H](OS(=O)(=O)O)[C@@H](OS(=O)(=O)O)[C@@H](O[C@H]6[C@H](OS(=O)(=O)O)[C@@H](OS(=O)(=O)O)[C@@H](O[C@H]7[C@H](OS(=O)(=O)O)[C@@H](OS(=O)(=O)O)[C@@H](O[C@H]8[C@H](OS(=O)(=O)O)[C@@H](OS(=O)(=O)O)[C@@H](O[C@H]1[C@H](OS(=O)(=O)O)[C@H]2OS(=O)(=O)O)O[C@@H]8COS(=O)(=O)O)O[C@@H]7COS(=O)(=O)O)O[C@@H]6COS(=O)(=O)O)O[C@@H]5COS(=O)(=O)O)O[C@@H]4COS(=O)(=O)O)O[C@@H]3COS(=O)(=O)O [CD, Sulfated β-cyclodextrin, reference compound] | > 100 |
| O=S(=O)(O)CCCOc1c2cc(S(=O)(=O)O)cc1Cc1cc(S(=O)(=O)O)cc(c1OCCCS(=O)(=O)O)Cc1cc(S(=O)(=O)O)cc(c1OCCCS(=O)(=O)O)Cc1cc(S(=O)(=O)O)cc(c1OCCCS(=O)(=O)O)C2 [SC4c] | > 100 |
| O=P(O)(O)Oc1c2cccc1Cc1cccc(c1O)Cc1cccc(c1OP(=O)(O)O)Cc1cccc(c1O)C2 [C4diP, Calix[4]arene dihydroxyphosphonic acid] | > 100 |
| O=S(=O)(O)CCCOc1c2cc(S(=O)(=O)O)cc1Cc1cc(S(=O)(=O)O)cc(c1OCCCS(=O)(=O)O)Cc1cc(S(=O)(=O)O)cc(c1OCCCS(=O)(=O)O)Cc1cc(S(=O)(=O)O)cc(c1OCCCS(=O)(=O)O)Cc1cc(S(=O)(=O)O)cc(c1OCCCS(=O)(=O)O)Cc1cc(S(=O)(=O)O)cc(c1OCCCS(=O)(=O)O)C2 [SC6c] | > 100 |
| O=S(=O)(O)c1cc2c(O)c(c1)Cc1cc(S(=O)(=O)O)cc(c1O)Cc1cc(S(=O)(=O)O)cc(c1O)Cc1cc(S(=O)(=O)O)cc(c1O)Cc1cc(S(=O)(=O)O)cc(c1O)Cc1cc(S(=O)(=O)O)cc(c1O)Cc1cc(S(=O)(=O)O)cc(c1O)Cc1cc(S(=O)(=O)O)cc(c1O)C2 [SC8a, para-sulfonato-calix[8]arene] | 6.4 ± 1.4 |
| O=S(=O)(O)c1cc2c(O)c(c1)Cc1cc(S(=O)(=O)O)cc(c1O)Cc1cc(S(=O)(=O)O)cc(c1O)Cc1cc(S(=O)(=O)O)cc(c1O)Cc1cc(S(=O)(=O)O)cc(c1O)Cc1cc(S(=O)(=O)O)cc(c1O)C2 [SC6a] | 11.2 ± 3.6 |
| O=S(=O)(O)CCCOc1c2cc(S(=O)(=O)O)cc1Cc1cc(S(=O)(=O)O)cc(c1OCCCS(=O)(=O)O)Cc1cc(S(=O)(=O)O)cc(c1OCCCS(=O)(=O)O)Cc1cc(S(=O)(=O)O)cc(c1OCCCS(=O)(=O)O)Cc1cc(S(=O)(=O)O)cc(c1OCCCS(=O)(=O)O)Cc1cc(S(=O)(=O)O)cc(c1OCCCS(=O)(=O)O)Cc1cc(S(=O)(=O)O)cc(c1OCCCS(=O)(=O)O)Cc1cc(S(=O)(=O)O)cc(c1OCCCS(=O)(=O)O)C2 [SC8c] | 18.7 ± 0.7 |
| O=S(=O)(O)CCCOc1c2cccc1Cc1cccc(c1OCCCS(=O)(=O)O)Cc1cccc(c1OCCCS(=O)(=O)O)Cc1cccc(c1OCCCS(=O)(=O)O)C2 [SC4b] | > 100 |
| O=S(=O)(O)CCCOc1c2cccc1Cc1cccc(c1OCCCS(=O)(=O)O)Cc1cccc(c1OCCCS(=O)(=O)O)Cc1cccc(c1OCCCS(=O)(=O)O)Cc1cccc(c1OCCCS(=O)(=O)O)Cc1cccc(c1OCCCS(=O)(=O)O)Cc1cccc(c1OCCCS(=O)(=O)O)Cc1cccc(c1OCCCS(=O)(=O)O)C2 [SC8b] | 14 ± 2.2 |
| O=S(=O)(O)c1cc2c(O)c(c1)Cc1cc(S(=O)(=O)O)cc(c1O)Cc1cc(S(=O)(=O)O)cc(c1O)Cc1cc(S(=O)(=O)O)cc(c1O)C2 [SC4a, para-sulfonato-calix[4]arene] | > 100 |
| O=S(=O)(O)CCCOc1c2cccc1Cc1cccc(c1OCCCS(=O)(=O)O)Cc1cccc(c1OCCCS(=O)(=O)O)Cc1cccc(c1OCCCS(=O)(=O)O)Cc1cccc(c1OCCCS(=O)(=O)O)Cc1cccc(c1OCCCS(=O)(=O)O)C2 [SC6b] | > 100 |

Same assay, conditions: macrocycle at 100 µM

| Compound | inhibitory effect on PA endonuclease |
| --- | --- |
| O=P(O)(O)Oc1c2cccc1Cc1cccc(c1O)Cc1cccc(c1OP(=O)(O)O)Cc1cccc(c1O)C2 [C4diP, Calix[4]arene dihydroxyphosphonic acid] | neither SC4 and its derivatives nor C4diP show any inhibitory effects |
| O=S(=O)(O)c1cc2c(O)c(c1)Cc1cc(S(=O)(=O)O)cc(c1O)Cc1cc(S(=O)(=O)O)cc(c1O)Cc1cc(S(=O)(=O)O)cc(c1O)C2 [SC4a, para-sulfonato-calix[4]arene] | neither SC4 and its derivatives nor C4diP show any inhibitory effects |

System: PA endonuclease
Experiment: not given
Settings: PA endonuclease, in vitro assays only; read-out: Inhibition Activity IC50; cited from earlier work

| Compound | IC50 [µM] |
| --- | --- |
| O=C(O)c1c[nH]cc(O)c1=O [5-hydroxy-4-pyridone-3-carboxy acid] | 3.23 |
| O=c1[nH]cncc1O [5-hydroxypyrimidin-4(3H)-one] | 0.15 |

Same assay, conditions: PA endonuclease; read-out: Inhibition Activity IC50; cited from earlier work

| Compound | IC50 [µM] |
| --- | --- |
| O=C1c2c(O)c(=O)ccn2N([C@@H]2c3ccccc3SCc3c2ccc(F)c3F)[C@@H]2COCCN12 [Baloxavir Acid] | 0.00023 |

Same assay, conditions: in vitro assay, viral PA polymerase unit; read-out: IC50; cited from earlier work

| Compound | IC50 [µM] |
| --- | --- |
| O=C1c2c(O)c(=O)ccn2N([C@@H]2c3ccccc3SCc3c2ccc(F)c3F)[C@@H]2COCCN12 [Baloxavir Acid] | 0.0025 |

System: influenza virus
Experiment: not given
Set-up: method as in PMID 30184455
Settings: clinical trials, compared to oseltamivir; cited from earlier work

| Compound | reduction in viral loads |
| --- | --- |
| COC(=O)OCOc1c2n(ccc1=O)N([C@@H]1c3ccccc3SCc3c1ccc(F)c3F)[C@@H]1COCCN1C2=O [Baloxavir Marboxil] | greater reduction in viral loads |
